According to ChEMBL document CHEMBL1201862, “PubChem BioAssay data set” (2004):
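Following 48 hours of exposure in 96-well plates, responses at five concentrations were used to interpolate endpoints linearly. GI50 marks 50% less growth.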 The source made the active and inactive calls. Cut-off read from the data, not from the text of the source: active = GI50 up to about 1.1 µM and inactive = higher.

Assays:
Experiment in all cases: NCI anticancer screen, dose series, 48 h
NCI-H522 = system: NCI-H522
NCI-H460 = system: NCI-H460
SF-539 = system: SF-539
PC-3 = system: PC-3
T47D = system: T47D
786-0 = system: 786-0
OVCAR-5 = system: OVCAR-5
SN12C = system: SN12C
DU-145 = system: DU-145
HOP-92 = system: HOP-92
SK-MEL-28 = system: SK-MEL-28
UACC-62 = system: UACC-62
M14 = system: M14
CCRF-CEM = system: CCRF-CEM
OVCAR-3 = system: OVCAR-3
NCI-H23 = system: NCI-H23
U-251 = system: U-251
A498 = system: A498
K562 = system: K562
RXF 393 = system: RXF 393
RPMI-8226 = system: RPMI-8226
UACC-257 = system: UACC-257
OVCAR-4 = system: OVCAR-4
SNB-75 = system: SNB-75
HCC 2998 = system: HCC 2998
SF-295 = system: SF-295
SK-MEL-2 = system: SK-MEL-2
ACHN = system: ACHN
MDA-MB-435 = system: MDA-MB-435
NCI/ADR-RES = system: NCI/ADR-RES
LOX IMVI = system: LOX IMVI
MOLT-4 = system: MOLT-4
HOP-62 = system: HOP-62
TK-10 = system: TK-10
SW-620 = system: SW-620
A549 = system: A549
HL-60 = system: HL-60
KM12 = system: KM12
IGROV-1 = system: IGROV-1
HCT-15 = system: HCT-15
UO-31 = system: UO-31
SF-268 = system: SF-268
NCI-H226 = system: NCI-H226
COLO 205 = system: COLO 205
MDA-MB-231 = system: MDA-MB-231
BT-549 = system: BT-549
HT-29 = system: HT-29
SK-MEL-5 = system: SK-MEL-5
SNB-19 = system: SNB-19
SR = system: SR
Malme-3M = system: Malme-3M
EKVX = system: EKVX
MCF7 = system: MCF7
MDA-N = system: MDA-N
CAKI-1 = system: CAKI-1
Hs-578T = system: Hs-578T
OVCAR-8 = system: OVCAR-8
HCT-116 = system: HCT-116
SK-OV-3 = system: SK-OV-3

SMILES: COc1cc2c(cc1OC)C(C1CC1)ON(C)CC2 (centres undefined)
- GI50 (NCI-H522): > 100 µM (inactive)
- GI50 (NCI-H460): > 100 µM (inactive)
- GI50 (SF-539): > 100 µM (inactive)
- GI50 (PC-3): > 100 µM (inactive)
- GI50 (T47D): > 100 µM (inactive)
- GI50 (786-0): > 100 µM (inactive)
- GI50 (OVCAR-5): > 100 µM (inactive)
- GI50 (SN12C): > 100 µM (inactive)
- GI50 (DU-145): > 100 µM (inactive)
- GI50 (HOP-92): > 100 µM (inactive)
- GI50 (SK-MEL-28): > 100 µM (inactive)
- GI50 (UACC-62): > 100 µM (inactive)
- GI50 (M14): > 100 µM (inactive)
- GI50 (CCRF-CEM): > 100 µM (inactive)
- GI50 (OVCAR-3): > 100 µM (inactive)
- GI50 (NCI-H23): > 100 µM (inactive)
- GI50 (U-251): > 100 µM (inactive)
- GI50 (A498): > 100 µM (inactive)
- GI50 (K562): > 100 µM (inactive)
- GI50 (RXF 393): > 100 µM (inactive)
- GI50 (RPMI-8226): > 100 µM (inactive)
- GI50 (UACC-257): > 100 µM (inactive)
- GI50 (OVCAR-4): > 100 µM (inactive)
- GI50 (SNB-75): > 100 µM (inactive)
- GI50 (HCC 2998): > 100 µM (inactive)
- GI50 (SF-295): > 100 µM (inactive)
- GI50 (SK-MEL-2): > 100 µM (inactive)
- GI50 (ACHN): > 100 µM (inactive)
- GI50 (MDA-MB-435): > 100 µM (inactive)
- GI50 (NCI/ADR-RES): > 100 µM (inactive)
- GI50 (LOX IMVI): > 100 µM (inactive)
- GI50 (MOLT-4): > 100 µM (inactive)
- GI50 (HOP-62): > 100 µM (inactive)
- GI50 (TK-10): > 100 µM (inactive)
- GI50 (SW-620): > 100 µM (inactive)
- GI50 (A549): > 100 µM (inactive)
- GI50 (HL-60): > 100 µM (inactive)
- GI50 (KM12): > 100 µM (inactive)
- GI50 (IGROV-1): > 100 µM (inactive)
- GI50 (HCT-15): > 100 µM
- GI50 (UO-31): > 100 µM (inactive)
- GI50 (SF-268): > 100 µM (inactive)
- GI50 (NCI-H226): > 100 µM (inactive)
- GI50 (COLO 205): > 100 µM (inactive)
- GI50 (MDA-MB-231): > 100 µM (inactive)
- GI50 (BT-549): > 100 µM (inactive)
- GI50 (HT-29): > 100 µM (inactive)
- GI50 (SK-MEL-5): > 100 µM (inactive)
- GI50 (SNB-19): > 100 µM (inactive)
- GI50 (SR): > 100 µM (inactive)
- GI50 (Malme-3M): > 100 µM (inactive)
- GI50 (EKVX): 58.7 µM (inactive)
- GI50 (MCF7): > 100 µM (inactive)
- GI50 (MDA-N): > 100 µM (inactive)
- GI50 (CAKI-1): > 100 µM (inactive)
- GI50 (Hs-578T): > 100 µM (inactive)
- GI50 (OVCAR-8): > 100 µM (inactive)
- GI50 (HCT-116): > 100 µM (inactive)

SMILES: CC1=CCC([C@@](C)(O)CCCC(C)(C)N=C=S)CC1 (some centres undefined)
- GI50 (NCI-H522): 17.3 µM (inactive)
- GI50 (NCI-H460): 16.5 µM (inactive)
- GI50 (SF-539): 19.2 µM (inactive)
- GI50 (PC-3): 18.6 µM (inactive)
- GI50 (T47D): 21 µM (inactive)
- GI50 (786-0): 17.7 µM (inactive)
- GI50 (OVCAR-5): 19.4 µM (inactive)
- GI50 (SN12C): 18.1 µM (inactive)
- GI50 (DU-145): 16.4 µM (inactive)
- GI50 (HOP-92): 18.5 µM (inactive)
- GI50 (SK-MEL-28): 16.6 µM (inactive)
- GI50 (UACC-62): 16.9 µM (inactive)
- GI50 (M14): 17.1 µM (inactive)
- GI50 (CCRF-CEM): 22.2 µM (inactive)
- GI50 (OVCAR-3): 18.4 µM (inactive)
- GI50 (NCI-H23): 20.9 µM (inactive)
- GI50 (U-251): 18.8 µM (inactive)
- GI50 (A498): 15.3 µM (inactive)
- GI50 (K562): 19.3 µM (inactive)
- GI50 (RXF 393): 13.7 µM (inactive)
- GI50 (RPMI-8226): 25.7 µM (inactive)
- GI50 (UACC-257): 19.4 µM (inactive)
- GI50 (OVCAR-4): 16.5 µM (inactive)
- GI50 (SNB-75): 17.8 µM (inactive)
- GI50 (HCC 2998): 18.2 µM (inactive)
- GI50 (SF-295): 19.4 µM (inactive)
- GI50 (SK-MEL-2): 17.7 µM (inactive)
- GI50 (ACHN): 16.8 µM (inactive)
- GI50 (MDA-MB-435): 17.1 µM (inactive)
- GI50 (NCI/ADR-RES): 19.6 µM (inactive)
- GI50 (LOX IMVI): 16 µM (inactive)
- GI50 (MOLT-4): 21.5 µM (inactive)
- GI50 (HOP-62): 22.6 µM (inactive)
- GI50 (TK-10): 22 µM (inactive)
- GI50 (SW-620): 18.3 µM (inactive)
- GI50 (A549): 17.6 µM (inactive)
- GI50 (HL-60): 21.8 µM (inactive)
- GI50 (KM12): 15.5 µM (inactive)
- GI50 (IGROV-1): 20.2 µM (inactive)
- GI50 (HCT-15): 18.5 µM
- GI50 (UO-31): 13.7 µM (inactive)
- GI50 (SF-268): 16.8 µM (inactive)
- GI50 (NCI-H226): 17.2 µM (inactive)
- GI50 (COLO 205): 16.1 µM (inactive)
- GI50 (MDA-MB-231): 19.1 µM (inactive)
- GI50 (BT-549): 17.8 µM (inactive)
- GI50 (HT-29): 17.7 µM (inactive)
- GI50 (SK-MEL-5): 15.4 µM (inactive)
- GI50 (SNB-19): 17.3 µM (inactive)
- GI50 (SR): 19.8 µM (inactive)
- GI50 (Malme-3M): 14.8 µM (inactive)
- GI50 (EKVX): 17 µM (inactive)
- GI50 (MCF7): 18.7 µM (inactive)
- GI50 (MDA-N): 18.4 µM (inactive)
- GI50 (Hs-578T): 26.5 µM (inactive)
- GI50 (OVCAR-8): 17.7 µM (inactive)
- GI50 (SK-OV-3): 17.9 µM (inactive)
- GI50 (HCT-116): 13.7 µM (inactive)

SMILES: O=C/C(=C(/Br)I)c1ccccc1
- GI50 (NCI-H522): 1.78 µM (inactive)
- GI50 (NCI-H460): 8.99 µM (inactive)
- GI50 (SF-539): 2.53 µM (inactive)
- GI50 (PC-3): 6.35 µM (inactive)
- GI50 (T47D): 1.86 µM (inactive)
- GI50 (786-0): 2.54 µM (inactive)
- GI50 (OVCAR-5): 9.86 µM (inactive)
- GI50 (SN12C): 1.9 µM (inactive)
- GI50 (DU-145): 15.7 µM (inactive)
- GI50 (HOP-92): 2.28 µM (inactive)
- GI50 (SK-MEL-28): 1.63 µM (inactive)
- GI50 (UACC-62): 6.7 µM (inactive)
- GI50 (M14): 1.8 µM (inactive)
- GI50 (CCRF-CEM): 0.248 µM (active)
- GI50 (OVCAR-3): 2.74 µM (inactive)
- GI50 (NCI-H23): 5.11 µM (inactive)
- GI50 (U-251): 4.1 µM (inactive)
- GI50 (A498): 18.6 µM (inactive)
- GI50 (K562): 0.624 µM (active)
- GI50 (RXF 393): 2.71 µM (inactive)
- GI50 (RPMI-8226): 2.25 µM (inactive)
- GI50 (UACC-257): 5.69 µM (inactive)
- GI50 (OVCAR-4): 3.86 µM (inactive)
- GI50 (SNB-75): 5.45 µM (inactive)
- GI50 (SF-295): 5.77 µM (inactive)
- GI50 (SK-MEL-2): 3.42 µM (inactive)
- GI50 (ACHN): 3.1 µM (inactive)
- GI50 (MDA-MB-435): 2.56 µM (inactive)
- GI50 (NCI/ADR-RES): 3.95 µM (inactive)
- GI50 (LOX IMVI): 3.81 µM (inactive)
- GI50 (MOLT-4): 0.597 µM (active)
- GI50 (HOP-62): 15.7 µM (inactive)
- GI50 (TK-10): 6.12 µM (inactive)
- GI50 (SW-620): 1.15 µM (inactive)
- GI50 (A549): 22.9 µM (inactive)
- GI50 (HL-60): 0.352 µM (active)
- GI50 (KM12): 6.61 µM (inactive)
- GI50 (IGROV-1): 4.41 µM (inactive)
- GI50 (HCT-15): 2.24 µM
- GI50 (UO-31): 4.97 µM (inactive)
- GI50 (SF-268): 2.3 µM (inactive)
- GI50 (NCI-H226): 9.64 µM (inactive)
- GI50 (COLO 205): 3.91 µM (inactive)
- GI50 (MDA-MB-231): 2.56 µM (inactive)
- GI50 (BT-549): 2.42 µM (inactive)
- GI50 (HT-29): 2.29 µM (inactive)
- GI50 (SK-MEL-5): 7.06 µM (inactive)
- GI50 (SNB-19): 13.6 µM (inactive)
- GI50 (SR): 0.448 µM (active)
- GI50 (Malme-3M): 1.92 µM (inactive)
- GI50 (EKVX): 15.3 µM (inactive)
- GI50 (MCF7): 1.3 µM (inactive)
- GI50 (MDA-N): 2.54 µM (inactive)
- GI50 (CAKI-1): 2.14 µM (inactive)
- GI50 (Hs-578T): 9.59 µM (inactive)
- GI50 (OVCAR-8): 2.83 µM (inactive)
- GI50 (SK-OV-3): 14.5 µM (inactive)
- GI50 (HCT-116): 1.51 µM (inactive)
